According to ChEMBL document CHEMBL2390824, “Carbonic anhydrase inhibitors. Benzenesulfonamides incorporating cyanoacrylamide moieties strongly inhibit Saccharomyces cerevisiae β-carbonic anhydrase” (Bioorg Med Chem Lett, 2013):

Assays:
[1] = Selectivity ratio of Ki for Sachcharomyces cerevisiae beta carbonic anhydrase to Ki for human carbonic anhydrase-1
[2] = Inhibition of Sachcharomyces cerevisiae beta carbonic anhydrase after 15 mins by stopped-flow CO2 hydrase assay; set-up: species or system Saccharomyces cerevisiae
[3] = Selectivity ratio of Ki for Sachcharomyces cerevisiae beta carbonic anhydrase to Ki for human carbonic anhydrase-2
[4] = tested on: Saccharomyces cerevisiae; test: Antifungal activity against wild type Saccharomyces cerevisiae BY4742 assessed as growth inhibition after 48 hrs by microplate spectrophotometric analysis; type: functional; conditions: BY4742, 48 h, read-out: CC50

N#C/C(=C\c1ccco1)C(=O)Nc1ccc(S(N)(=O)=O)cc1
Ratio Ki [1]: 0.8 | Ki [2]: 7.6 nM | Ratio Ki [3]: 0.72

COc1ccc(/C=C(\C#N)C(=O)Nc2ccc(S(N)(=O)=O)cc2)cc1OC
Ratio Ki [1]: 4.34 | Ki [2]: 7.2 nM | Ratio Ki [3]: 2.58

COc1cc(OC)c(/C=C(\C#N)C(=O)Nc2ccc(S(N)(=O)=O)cc2)c(OC)c1
Ratio Ki [1]: 37.6 | Ki [2]: 0.68 nM | Growth inhibition IC50 [4]: 730 nM | Ratio Ki [3]: 9.85

N#C/C(=C\c1ccc(O)c(O)c1)C(=O)Nc1ccc(S(N)(=O)=O)cc1
Ratio Ki [1]: 69.9 | Ki [2]: 0.75 nM | Growth inhibition IC50 [4]: 890 nM | Ratio Ki [3]: 5.6

N#C/C(=C\c1ccc2c(c1)OCO2)C(=O)Nc1ccc(S(N)(=O)=O)cc1
Ratio Ki [1]: 3.29 | Ki [2]: 7.5 nM | Ratio Ki [3]: 1.9

N#C/C(=C\c1ccc(O)cc1)C(=O)Nc1ccc(S(N)(=O)=O)cc1
Ratio Ki [1]: 23.6 | Ki [2]: 2.5 nM | Growth inhibition IC50 [4]: 6540 nM | Ratio Ki [3]: 13.5

COc1ccc(/C=C(\C#N)C(=O)Nc2ccc(S(N)(=O)=O)cc2)cc1
Ratio Ki [1]: 43 | Ki [2]: 0.92 nM | Growth inhibition IC50 [4]: 1140 nM | Ratio Ki [3]: 9.78

COc1cc(/C=C(\C#N)C(=O)Nc2ccc(S(N)(=O)=O)cc2)ccc1O
Ratio Ki [1]: 5.87 | Ki [2]: 5.6 nM | Ratio Ki [3]: 1.07

N#C/C(=C\c1ccc([N+](=O)[O-])cc1)C(=O)Nc1ccc(S(N)(=O)=O)cc1
Ratio Ki [1]: 2.15 | Ki [2]: 18.6 nM | Ratio Ki [3]: 0.29

CC(=O)C1=NN(c2ccccc2)/C(=C(\C#N)C(=O)Nc2ccc(S(N)(=O)=O)cc2)S1
Ratio Ki [1]: 2.02 | Ki [2]: 57.3 nM | Ratio Ki [3]: 0.13

COc1cc(OC)c(OC)cc1/C=C(\C#N)C(=O)Nc1ccc(S(N)(=O)=O)cc1
Ratio Ki [1]: 4.93 | Ki [2]: 8.6 nM | Ratio Ki [3]: 4.44

COc1ccccc1/C=C(\C#N)C(=O)Nc1ccc(S(N)(=O)=O)cc1
Ratio Ki [1]: 1.02 | Ki [2]: 69.5 nM | Ratio Ki [3]: 0.1

N#C/C(=C\c1cccs1)C(=O)Nc1ccc(S(N)(=O)=O)cc1
Ratio Ki [1]: 1.6 | Ki [2]: 3.3 nM | Ratio Ki [3]: 0.81

N#C/C(=N\Nc1ccccc1)C(=O)Nc1ccc(S(N)(=O)=O)cc1
Ratio Ki [1]: 5.23 | Ki [2]: 6.5 nM | Ratio Ki [3]: 1.3

N#CCC(=O)Nc1ccc(S(N)(=O)=O)cc1
Ratio Ki [1]: 6.25 | Ki [2]: 8.7 nM | Ratio Ki [3]: 0.7

N#C/C(=C\c1ccc(Cl)cc1Cl)C(=O)Nc1ccc(S(N)(=O)=O)cc1
Ratio Ki [1]: 5.17 | Ki [2]: 9.1 nM | Ratio Ki [3]: 3.61

N#C/C(=C\C=C\c1ccccc1)C(=O)Nc1ccc(S(N)(=O)=O)cc1
Ratio Ki [1]: 3.16 | Ki [2]: 5.9 nM | Ratio Ki [3]: 5.3

N#C/C(C(=O)Nc1ccc(S(N)(=O)=O)cc1)=C(\S)Nc1ccccc1
Ratio Ki [1]: 1.47 | Ki [2]: 45.8 nM | Ratio Ki [3]: 0.14

CN(C)c1ccc(/C=C(\C#N)C(=O)Nc2ccc(S(N)(=O)=O)cc2)cc1
Ratio Ki [1]: 15.8 | Ki [2]: 3 nM | Growth inhibition IC50 [4]: 6220 nM | Ratio Ki [3]: 6.46

N=c1oc2ccccc2cc1C(=O)Nc1ccc(S(N)(=O)=O)cc1
Ratio Ki [1]: 5.67 | Ki [2]: 5.8 nM | Ratio Ki [3]: 1.88

N#C/C(=C\c1ccccc1Cl)C(=O)Nc1ccc(S(N)(=O)=O)cc1
Ratio Ki [1]: 4.91 | Ki [2]: 8.4 nM | Ratio Ki [3]: 7.26

COc1cc(/C=C(\C#N)C(=O)Nc2ccc(S(N)(=O)=O)cc2)cc(OC)c1OC
Ratio Ki [1]: 5.17 | Ki [2]: 7.1 nM | Ratio Ki [3]: 1.05

CC(=O)Nc1nnc(S(N)(=O)=O)s1 [ACETAZOLAMIDE]
Ratio Ki [1]: 3.02 | Ki [2]: 82.6 nM | Ratio Ki [3]: 0.14
